Test results from EP1377579B1 (Aventis Pharmaceuticals Inc., priority 2000, dated 2002).
Where a name gives a salt, the structure may show the parent alone.

Experiments:
[1] = molecular target: cdk4/cyclin D1 (Homo sapiens, UniProt P11802); assay: Cyclin-dependent kinase assay, cdk4/cyclin D1; assay type: biochemical; conditions: cyclin D1/cdk4; GST-pRb substrate, 10 µM ATP
[2] = test system: Colo-205; assay: In vitro proliferation assay (MTT), Colo-205; assay type: cell-based; conditions: Homo sapiens, COLO 205; MTT assay; value (SD, n) where given; read-out: Colo-205 Colon (IC50 µM)
Experimental: (§1) The proliferation of tumor cells can be measured using a tetrazolium salt-based assay known as the MTT (3-[4,5-Dimethylthiazol-2-yl]-2,5-diphenyltetrazolium bromide) assay. The proliferation test is performed essentially as described by Carmichael et al., Cancer Res. 47: 936-942, 1987. For the assay, the cell lines are plated onto 96 well plates at 1000 to 2500 cells/well (depending on the properties of the individual cell lines), left to attach and recover overnight. […] After 3 days, the cells are incubated with MTT dye (3-[4,5-Dimethylthiazol-2-yl]-2,5-diphenyltetrazolium bromide, Sigma # M5655, 10 mg/ml in Hank's Buffered Saline) to estimate the amount of live cells remaining vs. concentration for the test compounds. Specifically, MTT solution is added to a final concentration of […] and the plates incubated at 37 C for 2 to 4 hr. The MTT and culture medium is then removed from the cultures and 200 µl of DMSO is added to solubilize the dye from the cell layer. The absorbance at 570 nm is determined for each culture using a Spectramax plate reader (Molecular Devices).
(§2) IC50s were determined from the raw data from either the MTT or SRB assays.

[3] = test system: NCI-H460; assay: In vitro proliferation assay (MTT), NCI-H460; assay type: cell-based; conditions: Homo sapiens, NCI-H460; MTT assay; value (SD, n) where given; read-out: H-460 Lung (IC50 µM)
Experimental: as §1, §2
All of the cell lines were obtained from American Type Tissue Collection, with the ATCC accession number in parentheticals. MCF-7 and MDA-MB-231 cells were grown in improved minimum essential medium (Biofluids) without phenol red, supplemented with 5 % fetal bovine serum, 0.01 mg/ml gentamicin and 3 mM L-glutamine. All of the other cell lines were grown in RPMI 1640 medium (Life Technologies) supplemented with 5 % fetal bovine serum, 0.01 mg/ml gentamicin and 3 mM L-glutamine TABLE 3

[4] = molecular target: cdk2/cyclin E (Homo sapiens, UniProt P24941); assay: Cyclin-dependent kinase assay, cdk2/cyclin E; conditions: CDK2 IC50, nM, GST-pRb substrate, 10 µM ATP
[5] = molecular target: cdk1/cyclin B (Homo sapiens, UniProt P06493); assay: Cyclin-dependent kinase assay, cdk1/cyclin B; conditions: CDK1 IC50, nM, Histone H1, 10 µM ATP
[6] = test system: MDA-MB-435; assay: In vitro proliferation assay (MTT), MDA-MB-435; assay type: cell-based, human; conditions: Homo sapiens, MDA-MB-435, MTT assay; value (SD, n) where given; read-out: MB-435 Breast (IC50 µM)
Procedure, shortened: (§3)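 IC50 values come from absorbance at 570 nm after MTT staining of cells grown with compound for 3 days. Seeding density was 1000 to 2500 cells/well, depending on the line.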

[7] = test system: PC-3; assay: In vitro proliferation assay (MTT), PC-3; assay type: cell-based, human; conditions: Homo sapiens, PC-3, MTT assay; value (SD, n) where given; read-out: PC-3 Prostate (IC50 µM)
Procedure, shortened: as §3

cdk1/cyclin B, sequence (P06493 whole entry): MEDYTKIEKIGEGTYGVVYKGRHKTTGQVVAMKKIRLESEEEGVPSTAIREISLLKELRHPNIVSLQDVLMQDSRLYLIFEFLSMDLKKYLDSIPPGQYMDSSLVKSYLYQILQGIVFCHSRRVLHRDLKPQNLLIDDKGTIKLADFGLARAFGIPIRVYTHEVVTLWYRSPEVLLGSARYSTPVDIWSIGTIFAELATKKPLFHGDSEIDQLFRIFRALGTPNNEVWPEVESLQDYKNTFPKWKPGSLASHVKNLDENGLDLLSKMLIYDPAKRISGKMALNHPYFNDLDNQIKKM
cdk1/cyclin B, sequence (P14635 whole entry partner): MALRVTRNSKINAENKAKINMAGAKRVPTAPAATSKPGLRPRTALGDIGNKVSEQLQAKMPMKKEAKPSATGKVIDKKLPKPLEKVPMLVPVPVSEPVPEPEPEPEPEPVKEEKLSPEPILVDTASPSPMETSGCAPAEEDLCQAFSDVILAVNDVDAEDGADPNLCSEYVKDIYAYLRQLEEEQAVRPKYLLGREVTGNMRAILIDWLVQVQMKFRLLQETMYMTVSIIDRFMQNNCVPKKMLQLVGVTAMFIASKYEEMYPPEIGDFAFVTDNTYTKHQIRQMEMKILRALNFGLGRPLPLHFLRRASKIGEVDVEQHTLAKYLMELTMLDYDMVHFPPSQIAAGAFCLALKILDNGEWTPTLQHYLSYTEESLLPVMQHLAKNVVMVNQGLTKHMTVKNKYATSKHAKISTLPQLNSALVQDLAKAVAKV
cdk4/cyclin D1, sequence (P11802 whole entry): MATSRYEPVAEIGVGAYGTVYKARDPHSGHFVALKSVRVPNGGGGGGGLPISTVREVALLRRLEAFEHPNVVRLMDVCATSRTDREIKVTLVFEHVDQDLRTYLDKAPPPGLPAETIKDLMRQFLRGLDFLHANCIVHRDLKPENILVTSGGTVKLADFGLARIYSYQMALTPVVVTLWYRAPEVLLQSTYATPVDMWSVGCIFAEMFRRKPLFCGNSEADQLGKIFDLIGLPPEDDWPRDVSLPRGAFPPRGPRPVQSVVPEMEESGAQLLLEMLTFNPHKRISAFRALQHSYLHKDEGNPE
cdk4/cyclin D1, sequence (P24385 whole entry partner): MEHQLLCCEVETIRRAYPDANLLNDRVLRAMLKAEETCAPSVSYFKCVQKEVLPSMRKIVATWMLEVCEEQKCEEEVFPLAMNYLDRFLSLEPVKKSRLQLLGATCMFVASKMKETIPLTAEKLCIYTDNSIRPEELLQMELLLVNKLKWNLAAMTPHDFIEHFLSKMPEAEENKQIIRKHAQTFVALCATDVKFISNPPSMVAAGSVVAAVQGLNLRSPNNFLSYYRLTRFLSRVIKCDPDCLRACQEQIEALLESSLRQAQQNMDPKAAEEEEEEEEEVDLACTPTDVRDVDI

| Compound | IC50 [1] [nM] | IC50 [2] [µM] | IC50 [3] [µM] | IC50 [4] [nM] | IC50 [5] [nM] | IC50 [6] [µM] | IC50 [7] [µM] |
| --- | --- | --- | --- | --- | --- | --- | --- |
| N[C@H]1CC[C@H](Nc2nc(NC3CCN(C(=O)CCc4ccccc4)CC3)c3ncn(C4CCCC4)c3n2)CC1 [compound 33, trans 1-{4-[2-(4-Amino-cyclohexylamino)-9-cyclopentyl-9H-purin-6-ylamino]-piperidin-1-yl}-3-phenyl-propan-1-one dihydrochloride] | 427 | 0.07 | 0.24 | 30 | 58 | 0.26 | 0.33 |
| N[C@H]1CC[C@H](Nc2nc(NC3CCN(C(=O)COCc4ccccc4)CC3)c3ncn(C4CCCC4)c3n2)CC1 [compound 37, trans-1-{4-[2-(4-Amino-cyclohexylamino)-9-cyclopentyl-9H-purin-6-ylamino]-piperidin-1-yl}-2-benzyloxy-ethanone dihydrochloride] | 1700 | < 0.02 | 0.23 | 32 | 15 | 0.26 | 0.2 |
| N[C@H]1CC[C@H](Nc2nc(NC3CCN(C(=O)CSc4ccccc4)CC3)c3ncn(C4CCCC4)c3n2)CC1 [compound 46, trans-1-{4-[2-(4-Amino-cyclohexylamino)-9-cyclopentyl-9H-purin-6-ylamino]-piperidin-1-yl}-2-phenylsulfanylethanone dihydrochloride] | 709 | 0.06 | 0.17 | 55 | 153 | 0.17 | 0.19 |
| N[C@H]1CC[C@H](Nc2nc(NC3CCN(C(=O)C4CCC4)CC3)c3ncn(C4CCCC4)c3n2)CC1 [compound 63, trans-1-{4-[2-(4-Amino-cyclohexylamino)-9-cyclopentyl-9H-purin-6-ylamino]-piperidin-1-yl}-1-cyclobutyl-methanone dihydrochloride] | 441 | 0.16 | 0.24 | 66 | 23 | 0.17 | 0.21 |
| N[C@H]1CC[C@H](Nc2nc(NC3CCN(S(=O)(=O)c4ccccc4)CC3)c3ncn(C4CCCC4)c3n2)CC1 [compound 105, trans-N^2-(4-Amino-cyclohexyl)-N^6-(1-benzenesulfonyl-piperidin-4-yl)-9-cyclopentyl-9H-purine-2,6-diamine dihydrochloride] | 69 | 0.21 | 0.29 | 8 | 7 | 0.18 | 0.5 |
| CC1(C)C2CCC1(CS(=O)(=O)N1CCC(Nc3nc(N[C@H]4CC[C@H](N)CC4)nc4c3ncn4C3CCCC3)CC1)C(=O)C2 (stereo partly drawn) [compound 107, trans-1-{4-[2-(4-Amino-cyclohexylamino)-9-cyclopentyl-9H-purin-6-ylamino]-piperidine-1-sulfonylmethyl}-7,7-dimethyl-bicyclo[2.2.1]heptan-2-one dihydrochloride] | 10 | 0.18 | 0.29 | 35 | 250 | 0.11 | 0.41 |
| N[C@H]1CC[C@H](Nc2nc(NC3CCN(S(=O)(=O)c4ccc(Cl)cc4)CC3)c3ncn(C4CCCC4)c3n2)CC1 [compound 108, trans-N -(4-Amino-cyclohexyl)-9-cyclopentyl-N^6-[1-(4-chloro-benzenesulfonyl)-piperidin-4-yl]-9H-purine-2,6-diamine dihydrochloride] | 170 | 0.18 | 0.29 | 10 | 7 | 0.14 | 0.43 |
| Cc1noc(C)c1S(=O)(=O)N1CCC(Nc2nc(N[C@H]3CC[C@H](N)CC3)nc3c2ncn3C2CCCC2)CC1 [compound 110, trans-N^2-(4-Amino-cyclohexyl)-9-cyclopentyl-N^6-[1-(3,5-dimethyl-isoxazole-4-sulfonyl)-piperidin-4-yl]-9H-purine-2,6-diamine dihydrochloride] | 158 | 0.25 | 0.65 | 9 | 27 | 0.44 | 0.76 |
